Several values for one entry are separate records, joined by “and”; a condition that tells them apart may be missing. Equal values may be shown once. Toxic doses and inconclusive results are not listed. The calls were made as follows: active = survival T/C of 150% or more; inactive = T/C below 125% in these data. Peptide text beside a SMILES is read from it. * marks the point of attachment. Cbz = O=C(OCc1ccccc1)*
Test system: P388 leukemia ip, CD2F1 mice, survival T/C
Test: NCI In Vivo Anticancer Drug Screen. Data for tumor model P388 Leukemia (intraperitoneal) in CD2F1 (CDF1) mice
Conditions: endpoint: median survival time, higher = longer survival
How it was run: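 Mice carrying the transplanted tumor received test compound or vehicle. Survival was recorded in each group, and the value is the treated-group measurement divided by that of the vehicle-treated control group.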

[1] = dose: 60.0 mg/kg/injection, schedule: Q01DX005 (ip), vehicle: saline with Tween-80
[2] = dose: 120.0 mg/kg/injection, schedule: Q01DX005 (ip), vehicle: saline with Tween-80
[3] = dose: 240.0 mg/kg/injection, schedule: Q01DX005 (ip), vehicle: saline with Tween-80
[4] = dose: 50.0 mg/kg/injection, schedule: Q01DX009 (ip), vehicle: saline with Tween-80
[5] = dose: 100.0 mg/kg/injection, schedule: Q01DX009 (ip), vehicle: saline with Tween-80
[6] = dose: 50.0 mg/kg/injection, schedule: Q01DX009 (ip), vehicle: Klucel (hydroxypropylcellulose) (HPC)
[7] = dose: 100.0 mg/kg/injection, schedule: Q01DX009 (ip), vehicle: Klucel (hydroxypropylcellulose) (HPC)
[8] = dose: 50.0 mg/kg/injection, schedule: Q04DX003 (ip), vehicle: saline with Tween-80
[9] = dose: 100.0 mg/kg/injection, schedule: Q04DX003 (ip), vehicle: saline with Tween-80
[10] = dose: 200.0 mg/kg/injection, schedule: Q04DX003 (ip), vehicle: saline with Tween-80
[11] = dose: 60.0 mg/kg/injection, schedule: Q01DX005 (ip), vehicle: saline
[12] = dose: 120.0 mg/kg/injection, schedule: Q01DX005 (ip), vehicle: saline
[13] = dose: 240.0 mg/kg/injection, schedule: Q01DX005 (ip), vehicle: saline

Measured: T/C

COc1cc([C@@H]2c3cc4c(cc3[C@H](OC(=O)CCC(=O)O)[C@H]3COC(=O)[C@H]23)OCO4)cc(OC)c1OC
inactive: dose: 6.25 mg/kg/injection, schedule: Q01DX005 (ip), vehicle: saline with Tween-80 106 % of control | dose: 12.5 mg/kg/injection, schedule: Q01DX005 (ip), vehicle: saline with Tween-80 122 % of control | dose: 25.0 mg/kg/injection, schedule: Q01DX005 (ip), vehicle: saline with Tween-80 113 % of control

O=C(O)C(Cc1ccc(O)cc1)NC(=O)C1CCCN1C(=O)OCc1ccccc1 (stereo not drawn) (Cbz-Pro-Tyr-OH; configuration not given here)
inactive: dose: 50.0 mg/kg/injection, schedule: Q01DX005 (ip), vehicle: saline 96 % of control | dose: 100.0 mg/kg/injection, schedule: Q01DX005 (ip), vehicle: saline 96 % of control | dose: 200.0 mg/kg/injection, schedule: Q01DX005 (ip), vehicle: saline 96 % of control

Oc1ccc(O)c(-n2nc3ccccc3n2)c1
inactive: [1] 104 % of control | [2] 103 % of control | [3] 100 % of control

CC(=O)OCC1OC(n2ncc(=O)[nH]c2=O)C(OC(C)=O)C1OC(C)=O (configuration not stated)
inactive: [4] 122 % of control | dose: 100.0 mg/kg/injection, schedule: Q01DX009 (ip), vehicle: saline sonified 118 % of control | [5] 122 % of control | dose: 200.0 mg/kg/injection, schedule: Q01DX009 (ip), vehicle: saline sonified 122 % of control | dose: 400.0 mg/kg/injection, schedule: Q01DX009 (ip), vehicle: saline sonified 118 % of control | dose: 800.0 mg/kg/injection, schedule: Q01DX009 (ip), vehicle: saline with Tween-80 100 % of control

CC1=C(N2CC2)C(=O)c2ccccc2C1=O
inactive: [6] 93 % of control | [7] 90 % of control

CCOC(=O)C(C)(C)S(=O)Nc1ccccc1 (configuration not stated)
inactive: dose: 60.0 mg/kg/injection, schedule: Q01DX005 (ip), vehicle: Klucel (hydroxypropylcellulose) (HPC) 99 % of control | dose: 120.0 mg/kg/injection, schedule: Q01DX005 (ip), vehicle: Klucel (hydroxypropylcellulose) (HPC) 99 % of control | dose: 240.0 mg/kg/injection, schedule: Q01DX005 (ip), vehicle: Klucel (hydroxypropylcellulose) (HPC) 102 % of control

CC(C)CSC(C)C
inactive: [8] 100 % of control | [9] 104 % of control | [10] 100 % of control

COC1C(C)OC(OC2CC(C)(O)Cc3cc4c(c(O)c32)C(=O)c2c(O)cc3c(c2C4=O)OC2OC3(C)C(O)C(N(C)C=O)C2O)C(OC)C1(C)OC (configuration not stated)
inactive: dose: 3.12 mg/kg/injection, schedule: Q04DX003 (ip), vehicle: other 100 % of control | dose: 6.25 mg/kg/injection, schedule: Q04DX003 (ip), vehicle: other 97 % of control | dose: 12.5 mg/kg/injection, schedule: Q04DX003 (ip), vehicle: other 94 % of control | dose: 25.0 mg/kg/injection, schedule: Q04DX003 (ip), vehicle: other 91 % of control | dose: 50.0 mg/kg/injection, schedule: Q04DX003 (ip), vehicle: other 95 % of control

Nc1ncccc1OCc1ccccc1
inactive: dose: 50.0 mg/kg/injection, schedule: Q01DX009 (ip), vehicle: saline 100 % of control and 110 % of control | dose: 100.0 mg/kg/injection, schedule: Q01DX009 (ip), vehicle: saline 107 % of control and 116 % of control | dose: 200.0 mg/kg/injection, schedule: Q01DX009 (ip), vehicle: saline 113 % of control and 98 % of control | dose: 400.0 mg/kg/injection, schedule: Q01DX009 (ip), vehicle: saline 100 % of control and 95 % of control

CCS/C(C#N)=C/c1ccccc1
inactive: [4] 109 % of control | [5] 115 % of control

Cc1ccc2sc(=S)sc2c1
inactive: [6] 89 % of control | [7] 99 % of control | dose: 200.0 mg/kg/injection, schedule: Q01DX009 (ip), vehicle: Klucel (hydroxypropylcellulose) (HPC) 96 % of control

NC(=O)C(CO)NC(=O)c1cccnc1 (configuration not stated)
inactive: [11] 100 % of control | [12] 100 % of control | [13] 99 % of control

Cc1cc2[nH]c3c(C#N)c(O)c(C(C)C)c(=O)n3c2cc1C
inactive: [1] 103 % of control | [2] 100 % of control | [3] 94 % of control

COc1ccccc1N1CCN(CCc2c[nH]c3cc4c(cc23)OCO4)CC1
inactive: dose: 6.25 mg/kg/injection, schedule: Q01DX009 (ip), vehicle: saline with Tween-80 92 % of control | dose: 12.5 mg/kg/injection, schedule: Q01DX009 (ip), vehicle: saline with Tween-80 100 % of control | dose: 12.5 mg/kg/injection, schedule: Q04DX003 (ip), vehicle: saline with Tween-80 114 % of control | dose: 18.75 mg/kg/injection, schedule: Q01DX009 (ip), vehicle: Klucel (hydroxypropylcellulose) (HPC) 108 % of control | dose: 25.0 mg/kg/injection, schedule: Q01DX009 (ip), vehicle: saline with Tween-80 101 % of control | dose: 25.0 mg/kg/injection, schedule: Q04DX003 (ip), vehicle: saline with Tween-80 120 % of control | dose: 37.5 mg/kg/injection, schedule: Q01DX009 (ip), vehicle: Klucel (hydroxypropylcellulose) (HPC) 101 % of control | [4] 104 % of control | [8] 123 % of control | dose: 75.0 mg/kg/injection, schedule: Q01DX009 (ip), vehicle: Klucel (hydroxypropylcellulose) (HPC) 88 % of control | [9] 121 % of control

CC(=O)N1CN(C(C)=O)CN(C(C)=O)C1
inactive: [11] 94 % of control | [12] 94 % of control | [13] 100 % of control

O=[N+]([O-])c1ccc(S(=O)(=O)O)cc1 (tested in a mixture with another compound)
inactive: [9] 98 % of control | [10] 101 % of control | dose: 400.0 mg/kg/injection, schedule: Q04DX003 (ip), vehicle: saline with Tween-80 86 % of control

O=C(Nc1ccc(F)cc1F)Oc1cccc2cccnc12
inactive: [6] 114 % of control | [7] 112 % of control

O=[N+]([O-])c1cc2c(cc1C=Nc1ccc(O)cc1)OCO2
inactive: dose: 12.5 mg/kg/injection, schedule: Q01DX009 (ip), vehicle: other 113 % of control | dose: 25.0 mg/kg/injection, schedule: Q01DX009 (ip), vehicle: other 117 % of control | dose: 50.0 mg/kg/injection, schedule: Q01DX009 (ip), vehicle: other 113 % of control | dose: 100.0 mg/kg/injection, schedule: Q01DX009 (ip), vehicle: other 96 % of control | dose: 200.0 mg/kg/injection, schedule: Q01DX009 (ip), vehicle: other 110 % of control | dose: 400.0 mg/kg/injection, schedule: Q01DX009 (ip), vehicle: other 113 % of control

C/C1=C/C2=CC(C)C[C@@H]2C(=O)[C@]2(C)C(=O)CC(C)(C)[C@H]2CC1=O (some centres not stated)
inactive: dose: 0.13 mg/kg/injection, schedule: Q01DX009 (ip), vehicle: Klucel (hydroxypropylcellulose) (HPC) 100 % of control | dose: 0.25 mg/kg/injection, schedule: Q01DX009 (ip), vehicle: Klucel (hydroxypropylcellulose) (HPC) 103 % of control | dose: 0.25 mg/kg/injection, schedule: Q01DX009 (ip), vehicle: saline with Tween-80 99 % of control | dose: 0.5 mg/kg/injection, schedule: Q01DX009 (ip), vehicle: Klucel (hydroxypropylcellulose) (HPC) 102 % of control | dose: 0.5 mg/kg/injection, schedule: Q01DX009 (ip), vehicle: saline with Tween-80 108 % of control | dose: 1.0 mg/kg/injection, schedule: Q01DX009 (ip), vehicle: Klucel (hydroxypropylcellulose) (HPC) 106 % of control | dose: 1.0 mg/kg/injection, schedule: Q01DX009 (ip), vehicle: saline with Tween-80 99 % of control | dose: 2.0 mg/kg/injection, schedule: Q01DX009 (ip), vehicle: saline with Tween-80 101 % of control | dose: 125.0 micrograms/kg/injection, schedule: Q01DX009 (ip), vehicle: saline + alcohol 105 % of control | dose: 250.0 micrograms/kg/injection, schedule: Q01DX009 (ip), vehicle: saline + alcohol 103 % of control | dose: 500.0 micrograms/kg/injection, schedule: Q01DX009 (ip), vehicle: saline + alcohol 112 % of control | dose: 1000.0 micrograms/kg/injection, schedule: Q01DX009 (ip), vehicle: saline + alcohol 107 % of control | dose: 2000.0 micrograms/kg/injection, schedule: Q01DX009 (ip), vehicle: saline + alcohol 105 % of control

C1=CC(=NN=P(c2ccccc2)(c2ccccc2)c2ccccc2)C=C1
inactive: [4] 89 % of control | [5] 102 % of control | dose: 200.0 mg/kg/injection, schedule: Q01DX009 (ip), vehicle: saline with Tween-80 97 % of control

N#C/C(=C\C=C\c1ccccc1)C(N)=O
inactive: [8] 104 % of control | [9] 104 % of control | [10] 109 % of control
